From article PMC6099740, “Design, Synthesis and Biological Evaluation of 6,7-Disubstituted-4-phenoxyquinoline Derivatives Bearing Pyridazinone Moiety as c-Met Inhibitors” (Molecules : A Journal of Synthetic Chemistry and Natural …, 2018)

Experiments:
[1] = system: A549 cells; assay: MTT cytotoxicity assay, A549; assay type: cell-based; conditions: Homo sapiens, 72 h
Method: (§1) The results expressed as IC50 values were summarized in Table 1, and the values were the average of at least two independent experiments.
(§2) The cancer cell lines were cultured in minimum essential medium (MEM) supplement with 10% fetal bovine serum (FBS). […] The test compounds at indicated final concentrations were added to the culture medium and the cell cultures were continued for 72 h. […] All of the compounds were tested two times in each of the cell lines. The results expressed as inhibition rates or IC50 (half-maximal inhibitory concentration) were the averages of two determinations and calculated by using the Bacus Laboratories Incorporated Slide Scanner (Bliss) software (the Bacus Laboratories Inc. Slide Scanner (BLISS) system, Lombard, IL, USA)..

[2] = system: HepG2 cells; assay: MTT cytotoxicity assay, HepG2; assay type: cell-based; conditions: Homo sapiens, 72 h
Method: as §1
The cancer cell lines were cultured in minimum essential medium (MEM) supplement with 10% fetal bovine serum (FBS). Approximately 4 × 10^3 cells, suspended in MEM medium, were plated onto each well of a 96-well plate and incubated in 5% CO2 at 37 °C for 24 h. The test compounds at indicated final concentrations were added to the culture medium and the cell cultures were continued for 72 h. Fresh MTT was added to each well at a terminal concentration of 5 μg/mL and incubated with cells at 37 °C for 4 h. The formazan crystals were dissolved in 100 μL DMSO each well, and the absorbency at 492 nm (for absorbance of MTT formazan) and 630 nm (for the reference wavelength) was measured with the ELISA reader. All of the compounds were tested two times in each of the cell lines. The results expressed as inhibition rates or IC50 (half-maximal inhibitory concentration) were the averages of two determinations and calculated by using the Bacus Laboratories Incorporated Slide Scanner (Bliss) software (the Bacus Laboratories Inc. Slide Scanner (BLISS) system, Lombard, IL, USA)..

[3] = system: MCF-7 cells; assay: MTT cytotoxicity assay, MCF-7; assay type: cell-based; conditions: Homo sapiens, MCF7, 72 h
Method: as §1, §2

[4] = target: c-Met kinase (Homo sapiens, UniProt P08581); assay: c-Met kinase inhibition assay (HTRF; mobility shift)
c-Met kinase, sequence (P08581 25-1390): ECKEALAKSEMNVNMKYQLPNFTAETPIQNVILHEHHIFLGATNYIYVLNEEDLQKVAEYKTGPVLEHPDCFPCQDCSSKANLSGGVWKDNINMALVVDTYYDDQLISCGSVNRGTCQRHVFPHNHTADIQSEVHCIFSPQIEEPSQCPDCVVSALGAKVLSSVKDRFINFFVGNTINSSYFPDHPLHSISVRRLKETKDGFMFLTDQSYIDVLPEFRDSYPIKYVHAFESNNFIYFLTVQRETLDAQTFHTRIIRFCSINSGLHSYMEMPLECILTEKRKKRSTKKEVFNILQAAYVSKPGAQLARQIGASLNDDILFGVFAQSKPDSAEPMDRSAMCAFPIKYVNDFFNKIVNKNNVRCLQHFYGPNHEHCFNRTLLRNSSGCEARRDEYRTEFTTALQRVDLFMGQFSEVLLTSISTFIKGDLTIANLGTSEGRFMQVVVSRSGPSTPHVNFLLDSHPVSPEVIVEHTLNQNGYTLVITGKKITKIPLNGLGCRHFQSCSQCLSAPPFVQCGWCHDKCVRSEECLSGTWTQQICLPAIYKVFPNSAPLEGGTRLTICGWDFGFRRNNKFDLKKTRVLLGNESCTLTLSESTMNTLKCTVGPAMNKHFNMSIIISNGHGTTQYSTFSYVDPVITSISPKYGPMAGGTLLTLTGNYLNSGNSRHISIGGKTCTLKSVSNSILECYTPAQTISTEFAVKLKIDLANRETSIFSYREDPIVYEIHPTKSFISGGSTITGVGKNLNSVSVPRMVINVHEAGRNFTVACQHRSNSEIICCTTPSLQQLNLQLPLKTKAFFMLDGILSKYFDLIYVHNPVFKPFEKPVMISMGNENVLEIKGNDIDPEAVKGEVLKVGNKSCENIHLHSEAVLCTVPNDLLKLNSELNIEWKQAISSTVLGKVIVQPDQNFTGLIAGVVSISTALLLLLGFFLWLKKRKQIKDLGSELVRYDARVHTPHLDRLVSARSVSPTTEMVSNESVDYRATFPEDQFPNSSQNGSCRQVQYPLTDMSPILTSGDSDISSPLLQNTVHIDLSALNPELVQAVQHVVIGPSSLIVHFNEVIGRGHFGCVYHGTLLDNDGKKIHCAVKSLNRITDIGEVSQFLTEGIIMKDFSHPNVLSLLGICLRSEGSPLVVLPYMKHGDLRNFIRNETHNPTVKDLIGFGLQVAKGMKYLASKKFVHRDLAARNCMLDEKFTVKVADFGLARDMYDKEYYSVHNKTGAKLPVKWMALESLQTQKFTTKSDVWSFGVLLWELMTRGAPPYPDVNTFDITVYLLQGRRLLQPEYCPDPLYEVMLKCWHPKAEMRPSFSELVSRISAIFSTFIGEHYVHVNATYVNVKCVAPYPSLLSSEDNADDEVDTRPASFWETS
Method: All kinase assays were performed in 96-well plates in a 50 µL reaction volume. The kinase buffer contains 50 mM HEPES, pH 7.5, 10 mM MgCl2, 0.0015% Brij-35 and 2 mM DTT. The stop buffer contains 100 mM HEPES, pH 7.5, 0.015% Brij-35, 0.2% Coating Reagent 3 and 50 mM EDTA. Dilute the compounds to 500 µM by 100% DMSO, then transfer 10 µL of compound to a new 96-well plate as the intermediate plate, add 90 µL kinase buffer to each well. Transfer 5 µL of each well of the intermediate plate to 384-well plates. The following amounts of enzyme and substrate were used per well: kinase base buffer, FAM-labeled peptide, ATP and enzyme solution. Wells containing the substrate, enzyme, DMSO without compound were used as DMSO control. Wells containing just the substrate without enzyme were used as low control. Incubate at room temperature for 10 min. Add 10 µL peptide solution to each well. […] At last collect data on Caliper program and convert conversion values to inhibition values. Percent inhibition = (max − conversion)/(max − min) × 100. ‘max’ stands for DMSO control; ‘min’ stands for low control [20].

SMILES | IC50 [1] | IC50 [2] | IC50 [3] | melting point | IC50 [4]
COc1cc2c(Oc3ccc(NC(=O)c4nn(-c5ccc(Br)cc5F)ccc4=O)cc3F)ccnc2cc1OCCCN1CCCCC1 [Compound 35, 1-(4-Bromo-2-fluorophenyl)-N-(3-fluoro-4-((6-methoxy-7-(3-(piperidin-1-yl)propoxy)quinolin-4-yl)oxy)phenyl)-4-oxo-1,4-dihydropyridazine-3-carboxamide] | 1.36 ± 0.19 µM | 3.1 ± 0.49 µM | 1.19 ± 0.08 µM | 105.9 to 107.4 °C | 0.008 µM
COc1cc2c(Oc3ccc(NC(=O)c4nn(-c5ccc(Cl)c(C(F)(F)F)c5)ccc4=O)cc3F)ccnc2cc1OCCCN1CCCCC1 [Compound 36, 1-(4-Chloro-3-(trifluoromethyl)phenyl)-N-(3-fluoro-4-((6-methoxy-7-(3-(piperidin-1-yl)propoxy)quinolin-4-yl)oxy)phenyl)-4-oxo-1,4-dihydropyridazine-3-carboxamide] | 0.79 ± 0.06 µM | 1.8 ± 0.26 µM | 0.73 ± 0.08 µM | 185.7 to 186.6 °C | 0.011 µM
COc1cc2c(Oc3ccc(NC(=O)c4nn(-c5ccc(F)cc5)ccc4=O)cc3F)ccnc2cc1OCCCN1CCC(C)CC1 [Compound 38, N-(3-Fluoro-4-((6-methoxy-7-(3-(4-methylpiperidin-1-yl)propoxy)quinolin-4-yl)oxy)phenyl)-1-(4-fluorophenyl)-4-oxo-1,4-dihydropyridazine-3-carboxamide] | 28.9 ± 1.46 µM | 47.2 ± 1.67 µM | 22.5 ± 1.35 µM | 210.1 to 211.4 °C | > 0.5 µM
COc1cc2c(Oc3ccc(NC(=O)c4nn(-c5ccc(Cl)cc5)ccc4=O)cc3F)ccnc2cc1OCCCN1CCC(C)CC1 [Compound 39, 1-(4-Chlorophenyl)-N-(3-fluoro-4-((6-methoxy-7-(3-(4-methylpiperidin-1-yl)propoxy)quinolin-4-yl)oxy)phenyl)-4-oxo-1,4-dihydropyridazine-3-carboxamide] | 12.4 ± 1.09 µM | 7.81 ± 0.89 µM | 14.1 ± 1.15 µM | 220.6 to 222.1 °C | 0.169 µM
COc1cc2c(Oc3ccc(NC(=O)c4nn(-c5ccc(Br)cc5)ccc4=O)cc3F)ccnc2cc1OCCCN1CCC(C)CC1 [Compound 40, 1-(4-Bromophenyl)-N-(3-fluoro-4-((6-methoxy-7-(3-(4-methylpiperidin-1-yl)propoxy)quinolin-4-yl)oxy)phenyl)-4-oxo-1,4-dihydropyridazine-3-carboxamide] | 13.5 ± 1.13 µM | 8.84 ± 0.95 µM | 9.74 ± 0.99 µM | 220.7 to 221.4 °C | 0.345 µM
COc1cc2c(Oc3ccc(NC(=O)c4nn(-c5ccc(Cl)c(C(F)(F)F)c5)ccc4=O)cc3F)ccnc2cc1OCCCN1CCC(C)CC1 [Compound 44, 1-(4-Chloro-3-(trifluoromethyl)phenyl)-N-(3-fluoro-4-((6-methoxy-7-(3-(4-methylpiperidin-1-yl)propoxy)quinolin-4-yl)oxy)phenyl)-4-oxo-1,4-dihydropyridazine-3-carboxamide] | 0.15 ± 0.03 µM | 0.65 ± 0.05 µM | 5.96 ± 0.07 µM | 137.7 to 138.6 °C | 0.019 µM
COc1cc2c(Oc3ccc(NC(=O)c4nn(-c5ccccc5)ccc4=O)cc3F)ccnc2cc1OCCCN1CCC(C)CC1 [Compound 45, N-(3-Fluoro-4-((6-methoxy-7-(3-(4-methylpiperidin-1-yl)propoxy)quinolin-4-yl)oxy)phenyl)-4-oxo-1-phenyl-1,4-dihydropyridazine-3-carboxamide] | 2.95 ± 0.47 µM | 4.66 ± 0.67 µM | 2.01 ± 0.3 µM | 148.5 to 150.1 °C | 0.187 µM
COc1cc2c(Oc3ccc(NC(=O)c4nn(-c5ccc(Cl)cc5)ccc4=O)cc3F)ccnc2cc1OCCCN1CCN(C)CC1 [Compound 47, 1-(4-Chlorophenyl)-N-(3-fluoro-4-((6-methoxy-7-(3-(4-methylpiperazin-1-yl)propoxy)quinolin-4-yl)oxy)phenyl)-4-oxo-1,4-dihydropyridazine-3-carboxamide] | 20 ± 1.3 µM | 14.2 ± 1.15 µM | 21.1 ± 1.32 µM | 163.5 to 165.3 °C | 0.145 µM
COc1cc2c(Oc3ccc(NC(=O)c4nn(-c5ccc(Br)cc5)ccc4=O)cc3F)ccnc2cc1OCCCN1CCN(C)CC1 [Compound 48, 1-(4-Bromophenyl)-N-(3-fluoro-4-((6-methoxy-7-(3-(4-methylpiperazin-1-yl)propoxy)quinolin-4-yl)oxy)phenyl)-4-oxo-1,4-dihydropyridazine-3-carboxamide] | > 50 µM | > 50 µM | > 50 µM | 159.7 to 161.2 °C | > 0.5 µM
